For one experiment, the system named is Fusarium proliferatum. As to the kind of experiment: Production of fumonisin FB1 by Fusarium proliferatum. Type of experiment: cell-based. The conditions noted are these: 120 h, read-out: inhibition of fumonisin FB1 production.
The subject of a further experiment is Fusarium graminearum. As to the kind of experiment: microbe, parasite or virus in culture. The conditions noted are these: 168 h, read-out: inhibition of DON/AcDON production. Type of experiment: cell-based.
For another experiment, the system named is Pyrenophora teres. The experiment in a line: Pyrenophora teres test (barley)/protective. Type of experiment: in vivo. The conditions noted are these: protective, evaluation 8 days after inoculation. Here is the method:
[table] To produce a suitable preparation of active compound, 1 part by weight of active compound is mixed with the stated amounts of solvent and emulsifier, and the concentrate is diluted with water to the desired concentration. To test for protective activity, young plants are sprayed with the preparation of active compound at the stated application rate. After the spray coating has dried on, the plants are sprayed with a spore suspension of Pyrenophora teres. The plants remain in an incubation cabin at 20° C. and a relative atmospheric humidity of 100% for 48 hours.

The next experiment concerns Alternaria solani. As to the kind of experiment: Alternaria test (tomato)/protective. The experiment is classed as in vivo. The conditions noted are these: protective, 100 ppm, evaluation 3 days after inoculation. Here is the method: [table] To produce a suitable preparation of active compound, 1 part by weight of active compound is mixed with the stated amounts of solvent and emulsifier, and the concentrate is diluted with water to the desired concentration. To test for protective activity, young plants are sprayed with the preparation of active compound at the stated application rate. After the spray coating has dried on, the plants are inoculated with an aqueous spore suspension of Alternaria solani. The plants are then placed in an incubation cabin at about 20° C. and 100% relative atmospheric humidity.

Experiment [1] has as its system Triticum aestivum (common wheat). The experiment in a line: Phytoregulatory post-emergence action, TRZAS. The experiment is classed as in vivo. Particulars: 80 g of a.i./ha, visual rating after about 3 weeks. As for the experimental part:
(§1) Seeds of monocotyledonous and dicotyledonous crop plants are placed in sandy loam in wood-fibre pots, covered with soil and cultivated in a greenhouse under good growth conditions. 2 to 3 weeks after sowing, the test plants are treated at the one-leaf stage. The test compounds, formulated as wettable powders (WP), are, with a water application rate of 600 l/ha (converted), with 0.2% of wetting agent added, sprayed at various dosages onto the green parts of the plants. After the test plants have been kept in the greenhouse under optimum growth conditions for about 3 weeks, the activity of the preparations is rated visually in comparison to untreated controls (phytoregulatory activity in percent: 100% activity=maximum inhibition of plant growth, 0% activity=plant growth like that of an untreated control.)

In experiment [2] the test system is Brassica napus (rape). As to the kind of experiment: Phytoregulatory pre-emergence action, BRSNW. Type of experiment: in vivo. Particulars: 80 g of a.i./ha, visual assessment after about 3 weeks. An excerpt:
(§2) Seeds of monocotyledonous or dicotyledonous crop plants are placed in wood-fibre pots in sandy loam and covered with soil. The test compounds, formulated in the form of wettable powders (WP), are then, as an aqueous suspension with a water application rate of 600 l/ha (converted), with 0.2% of wetting agent added, applied at various dosages to the surface of the covering soil. After the treatment, the pots are placed in a greenhouse and kept under good growth conditions for the test plants. The visual assessment of the suppression of growth in the test plants is carried out after a trial period of about 3 weeks by comparison with untreated controls (phytoregulatory activity in percent: 100% activity=maximum inhibition of plant growth, 0% activity=plant growth like that of an untreated control.)

In the next experiment the test system is Aspergillus parasiticus. The experiment in a line: microbe, parasite or virus in culture. The conditions noted are these: 168 h, read-out: inhibition of aflatoxin production. The experiment is classed as cell-based.
Experiment [3] concerns Brassica napus (rape). As to the kind of experiment: Phytoregulatory post-emergence action, BRSNW. Particulars: 80 g of a.i./ha, visual rating after about 3 weeks. The experiment is classed as in vivo. As for the experimental part:
as §1

In experiment [4] the test system is Setaria viridis (green foxtail). The experiment in a line: Phytoregulatory post-emergence action, SETVI. Type of experiment: in vivo. The conditions noted are these: 80 g of a.i./ha, visual rating after about 3 weeks. Here is the method: as §1
The test system of a further experiment is Oryza sativa (rice). As to the kind of experiment: Phytoregulatory pre-emergence action, ORYSA. The experiment is classed as in vivo. Particulars: 80 g of a.i./ha, visual assessment after about 3 weeks.
Source text: as §2

As for `CC(C)(C)C(O)(COc1ccc(I)cc1)Cn1cncn1` (stereo not shown) [Compound 1], the inhibition at 50 µM in the experiment with Fusarium proliferatum and with Fusarium graminearum was above 80% each time. The Efficacy in % in the experiment with Pyrenophora teres (application rate 1000 ppm) came out at 86%; with Alternaria solani it was 94%.

Take `CC(C)(C)C(O)(CSc1ccc(I)cc1)Cn1cncn1` (stereo not shown) [Compound 3]: the inhibition at 50 µM with Fusarium proliferatum and in the experiment on Fusarium graminearum was above 80% in each case.

Regarding `CC(C)(C)C(O)(COc1ccc(Br)cc1)c1cncnc1` (stereo not shown) [Compound 11], the inhibition at 50 µM in the experiment on Fusarium proliferatum, in the experiment with Fusarium graminearum and with Aspergillus parasiticus was above 80% each time. Further, in [1], the “Inhibition of the growth of useful or harmful plants in % TRZAS” value is listed as 70%. The “Inhibition of the growth of useful or harmful plants in % BRSNW” value was 80% with Brassica napus (rape) [2] and 60% in the experiment with Brassica napus (rape) [3]. Also, the figures for the Efficacy in % with Pyrenophora teres (application rate 500 ppm) and in the experiment on Alternaria solani were 100% and 99%, respectively. The “Inhibition of the growth of useful or harmful plants in % SETVI” value in experiment [4] came to 70%. In the experiment on Oryza sativa (rice), the “Inhibition of the growth of useful or harmful plants in % ORYSA” value was 60%.

Take `CC(C)(C)C(O)(CSc1ccc(Br)cc1)c1cncnc1` (stereo not shown) [Compound 13]: the inhibition at 50 µM with Fusarium proliferatum was above 80%.

Regarding `CC(C)C(O)(COc1ccc(Br)cc1)c1cncnc1` (stereo not shown) [Compound 21], the inhibition at 50 µM in the experiment with Fusarium proliferatum and in the experiment with Fusarium graminearum was above 80% in each case.

For `CC(C)(C)C(O)(COc1ccc(Cl)cc1)c1cncnc1` (stereo not shown) [EP-A 0 028 755, Example 1, reference compound], in experiment [1], the “Inhibition of the growth of useful or harmful plants in % TRZAS” value was 50%. Also, the “Inhibition of the growth of useful or harmful plants in % BRSNW” value was found to be 70% in the experiment with Brassica napus (rape) [2] and 60% in the experiment on Brassica napus (rape) [3]. Further, the Efficacy in % is reported as 93% in the experiment with Pyrenophora teres (application rate 500 ppm) and 75% in the experiment on Alternaria solani. The “Inhibition of the growth of useful or harmful plants in % SETVI” value in [4] was determined as 50%. In addition, in the experiment on Oryza sativa (rice), the “Inhibition of the growth of useful or harmful plants in % ORYSA” value is listed as 40%.

For `CC(C)(C)C(O)(COc1ccc(Cl)cc1)Cn1cncn1` (stereo not shown) [EP-A 0 040 345, Example I-1, reference compound], the Efficacy in % with Pyrenophora teres (application rate 1000 ppm) is recorded as 57%; in the experiment on Alternaria solani, 45%.

Source of the values: patent publication US9051277B2, “Phenyl(oxy/thio)alkanol derivatives” (Bayer Intellectual Property GmbH, priority 2009, dated 2015).
